The values that follow come from patent US11013780B2, “Methods of treating female infertility” (Myovant Sciences GmbH, priority 2016, dated 2021).

Where no end group is shown, it is not given here. Some results are limits rather than exact numbers.

Data set [1] concerns serum LH, FSH, E2. Put plainly: Physiological effects in healthy women, follicular phase (Example 11, Part 1). The data set is classed as in vivo, human. The conditions noted are these: 9.6 nmol/kg SC. An excerpt:
The study population included healthy women, aged 18-35 years, with BMI 18-30 kg/m^2, no medical problems and not taking any medications or hormonal contraception. Three healthy, female subjects were selected and randomized and received a single dose of each of the three study regimens noted below (one regimen per study period). All women were scheduled for three Study D1 Visits (each during the follicular phase of the menstrual cycle). […] The order in which a subject receives one of the three study regimens was determined by a randomization matrix.
The study included a screening visit to collect participants' full medical history and to conduct a general medical examination and blood testing. The three study periods each consisted of three planned study visits per study period (excluding screening and follow-up). Study Day 1 (SD1) Visit of each study period occurred during the follicular phase of the menstrual cycle (days 1-4), and the SD2 and SD3 Visits occurred at 24- and 48-hrs post-dose, respectively (FIG. 14). A follow-up phone call happened 7-10 days post-dose in each study period.
Immediately following dosing, serum LH, FSH, E2 (oestradiol), P (progesterone) and SHBG levels were assessed at 30 minute intervals for up to 14 hours (FIGS. 15A-15C, 16A-16C, 17, 18, 19, 20A, and 20B). These PD variables were also assessed at 24 (Study Day 2) and 48 hours (Study Day 3) post-dose. SHBG changes less rapidly and was measured every 3 hours to reduce blood volume.
Up to 3 mL of blood volume were required for measurement of serum reproductive hormone levels (LH, FSH, E2 and P). Blood samples for serum analysis were collected in plain Vacutainer tubes (Beckton Dickson, Franklin Lakes, N.J., USA), and spun after clotting (˜1 hour at room temperature) for 10 minutes at 3000 rpm. Serum was then stored in a locked freezer at −20° C. until assay of serum reproductive hormone levels.

Data set [2] relates to LH surge. To be noted: trigger in ART protocol with GnRH antagonist and FSH; cited from earlier work.
For data set [3] the following is noted: in vivo; cited from earlier work.

For the substance “kisspeptin-54: previously shown to be clinically effective as a trigger for oocyte maturation in IVF studies (GTSLSPPPESSGSPQQPGLSAPHSRQIPAPQGAVLVQREKDLPNYNWNSFGLRF; ends and bridges not checked; UniProt Q15726 68-121, looked up)”, the “Time of LH peak after administration” value in data set [1] was 4 to 6 h. Besides, the “Time by which the LH surge resolved” value in data set [2] was at most 36 h. Further, the half-life (commonly how long it takes for the measured level to halve) in data set [3] is 32 min.
